Measured values from PMC12019328, “Discovery of an ApoE4-targeted small-molecule SirT1 enhancer for the treatment of Alzheimer’s disease” (Scientific Reports, 2025).

Legend:
ApoE4-TR:5xFAD mice = experiment: Barnes maze testing in ApoE4-TR:5xFAD mice; format: in vivo; details: 20 mg/Kg BID oral, 56 days, vs vehicle
Experimental: (§1) The active (-) enantiomer, DDL-218, underwent efficacy testing in ApoE4-TR:5xFAD mice[27] that were 6-7.5 months old at the start of treatment. ApoE4-TR:5xFAD male and female mice received either 20 mg/Kg DDL-218 BID (~ 8- to10-hour interval; total daily dose of 40 mkd) on weekdays and a single 40 mg/Kg dose on weekends (n = 12) or vehicle-only (n = 11); 8 C57BL/6 mice received vehicle-only as behavioral controls. Dosing was by the oral route and by oral feeding using a pipette as previously described, not gavage, as it is safer for repeated oral dosing than gavage. The dose of 20 mg/kg BID (40 mkd) was selected based on findings from PK analysis and was the highest feasible in the formulation used for oral feeding (compound is first solubilized in water, then mixed strawberry syrup diluted in water, for a final vehicle that is 25% syrup and 75% water). The final concentration of DDL-218 was chosen to deliver 20 mg/Kg in a volume of 10–20 µL (adjusted to the weight of each mouse). […]
For the probe test of memory, 48 h after the last training, the escape hole is closed and the escape box removed. […] Analysis of latency over the course of training trials was performed using ANY-Maze Software (Wood Dale, IL) and probe data was calculated manually as the software excludes mice that […] the escape hole within 90 s; in manual scoring, they are assigned a 90 s latency.

SirT1 mRNA = experiment: Hippocampal SirT1 mRNA in ApoE4-TR:5xFAD mice; format: in vivo; details: 20 mg/Kg BID, 56 days, vs vehicle
Experimental: as §1, with “water).” for “water). The final concentration of DDL-218 was chosen to deliver 20 mg/Kg in a volume of 10–20 µL (adjusted to the weight of each mouse).”
Total RNA was isolated from cells or brain tissue (Qiagen RNEasy kit). Total RNA (0.5–1.0 µg) mRNA was then converted to cDNA (SuperScript™ III First-Strand Synthesis SuperMix kit; Thermo Fisher), and gene mRNA levels were measured using a gene-specific qRT-PCR Taqman assays (Thermo Fisher). Gene mRNA levels were normalized to GAPDH mRNA levels measured either in the same cDNA sample or in the same qPCR reaction using multiplexing of gene-of-interest/VIC and GAPDH/FAM, normalized by the delta-delta-Ct method.

CC(N)C(=O)OC(C)(C)Cc1ccncc1 (centres unmarked) [DDL-218] was tested, and the “latency to enter the escape hole, 48-hour post-training probe” value (ApoE4-TR:5xFAD mice) was “decrease in latency” and the “hippocampal SirT1 mRNA” value (SirT1 mRNA) was “significantly increased”.
